In one assay the test system is human fibroblasts. Briefly: Direct induction from human fibroblasts into insulin-producing cells, amount of insulin secreted. Type of assay: cell-based. Particulars: culturing for 14 days in differentiation induction medium; 3 μM CHIR99021, 7.5 μM forskolin, 1.5 μM BRD7389, 5 μM LY294002; BI-D1870 5 μM or 10 μM; FIGS. 1 to 4. The text has this: The insulin-producing cell produced by the present invention process can be detected, identified, and isolated using, for example, a morphological change of a cell, a characteristic property of an insulin-producing cell, or a specific marker (e.g., an anti-insulin antibody). Moreover, the secretory capacity of the obtained insulin-producing cell can also be evaluated by quantifying the amount of secreted insulin using sandwich ELISA.
The human fibroblasts used as the material were purchased from DS Pharma Biomedical Co., Ltd. The fibroblasts are derived from human skin.
Human fibroblasts were seeded in 35-mm dishes coated with gelatin (Cat #: 190-15805, manufactured by Wako Pure Chemical Industries, Ltd.) at 5×10^4 cells/dish, and cultured in DMEM medium (manufactured by Gibco) supplemented with 10% fetal bovine serum (FBS), 100 U/mL penicillin, and 100 μg/mL streptomycin until confluent under conditions of 37° C. and 5% CO2. Note that DMEM refers to Dulbecco's Modified Eagle's Medium.
The medium of dishes of the human fibroblasts described above was replaced with the differentiation induction medium described below. […]

A further assay relates to pancreatic α-cells. Particulars: reported in Non-Patent Document 7; cited from earlier work.

We go through one compound from patent US20210395689A1, “METHOD FOR PRODUCING INSULIN-PRODUCING CELLS” (KATAOKA CORPORATION, priority 2018, published 2021).

`O=C1c2ccccc2-c2c(NCCc3ccccc3)c(=O)[nH]c3cccc1c23` [BRD7389]: the “insulin secretion by insulin-producing cells directly differentiated from human fibroblasts” value with human fibroblasts was “a considerable amount of insulin secretion was observed”. The “expression of insulin genes in pancreatic α-cells” value with pancreatic α-cells was “capacity of activating the expression of insulin genes”.
